Assay results taken from US9493466B2, “Treatment of cancer with TOR kinase inhibitors” (Signal Pharmaceuticals, LLC, priority 2011, dated 2016).
Where “and” joins values, the source holds several entries; their conditions need not be identical. Equal values may be shown once.

Columns and labels:
Test in all cases: Cell viability assay for NSCLC lines
Format in all cases: cell-based, human
Calu-1 = conditions: Calu-1, 3 days
Method: (§1) Cell Viability Assay for NSCLC Lines. Cell viability was assessed using the Cell Titer-Glo Luminescent Cell Viability from Promega. The assay is a homogenous method of determining the number of viable cells in culture based on quantitation of the adenosine triphosphate (ATP) present, an indicator of metabolically active cells. The homogenous assay procedure involves adding the single reagent (CellTiter-Glo Reagent) directly to cells cultured in serum-supplemented medium. Cells were plated into a 96-well flat bottom plate (Costar Catalog Number 33595) at densities that were previously optimized for each cell line. The cells were incubated overnight in 5% CO2 at 37° C. The following day, compound dilutions were prepared and all concentrations were assayed in triplicate. The cells were incubated with Compound 1 (0.03 μM, 0.1 μM, 0.3 μM, 1 μM, 3 μM, 10 μM and 30 μM for NSCLC cells) in 5% CO2 at 37° C. for 3 days. After a 3-day incubation period, 100 μL of CellTiter-Glo reagent was added to each well for 2 minutes with shaking and further incubated for 10 minutes (no shaking) at room temperature to stabilize the signal. The luminescence was measured on the VICTOR X2 multilabel plate reader. The percent growth inhibition was calculated using the DMSO control in the same plate (no compound) response as 100% cell growth. The average values from triplicates were plotted to obtain IC50 values using software XLfit from IDBS. The formula used for determining IC50 in XLfit was model number 205, which utilizes a 4 Parameter Logistic Model or Sigmoidal Dose-Response Model to calculate the IC50 values. All IC50 values are reported as an average from either two independent experiments or a single experiment.

Calu-3 = conditions: Calu-3, 3 days
Method: as §1

Calu-6 = conditions: Calu-6, 3 days
Method: as §1

HOP62 = conditions: HOP62, 3 days
Method: as §1

HOP92 = conditions: HOP92, 3 days
Method: as §1

NCI-H1299 = conditions: NCI-H1299, 3 days
Method: as §1

NCI-H1395 = conditions: NCI-H1395, 3 days
Method: as §1

NCI-H1563 = conditions: NCI-H1563, 3 days
Method: as §1

NCI-H1650 = conditions: NCI-H1650, 3 days
Method: as §1

NCI-H1693 = conditions: NCI-H1693, 3 days
Method: as §1

NCI-H1734 = conditions: NCI-H1734, 3 days
Method: as §1

NCI-H1755 = conditions: NCI-H1755, 3 days
Method: as §1

NCI-H1792 = conditions: NCI-H1792, 3 days
Method: as §1

NCI-H1838 = conditions: NCI-H1838, 3 days
Method: as §1

NCI-H1944 = conditions: NCI-H1944, 3 days
Method: as §1

NCI-H1975 = conditions: NCI-H1975, 3 days
Method: as §1

NCI-H1993 = conditions: NCI-H1993, 3 days
Method: as §1

NCI-H2030 = conditions: NCI-H2030, 3 days
Method: as §1

NCI-H2110 = conditions: NCI-H2110, 3 days
Method: as §1

NCI-H2122 = conditions: NCI-H2122, 3 days
Method: as §1

NCI-H2228 = conditions: NCI-H2228, 3 days
Method: as §1

NCI-H226 = conditions: NCI-H226, 3 days
Method: as §1

NCI-H2291 = conditions: NCI-H2291, 3 days
Method: as §1

NCI-H2444 = conditions: NCI-H2444, 3 days
Method: as §1

NCI-H28 = conditions: NCI-H28, 3 days
Method: as §1

NCI-H358 = conditions: NCI-H358, 3 days
Method: as §1

NCI-H441 = conditions: NCI-H441, 3 days
Method: as §1

NCI-H460 = conditions: NCI-H460, 3 days
Method: as §1

NCI-H520 = conditions: NCI-H520, 3 days
Method: as §1

NCI-H549 = conditions: NCI-H549, 3 days
Method: as §1

NCI-H647 = conditions: NCI-H647, 3 days
Method: as §1

NCI-H650 = conditions: NCI-H650, 3 days
Method: as §1

NCI-H727 = conditions: NCI-H727, 3 days
Method: as §1

SK-LU-1 = conditions: SK-LU-1, 3 days
Method: as §1

SW1573 = conditions: SW1573, 3 days
Method: as §1

Structure (SMILES): CO[C@H]1CC[C@H](N2C(=O)CNc3ncc(-c4ccc(C(C)(C)O)nc4)nc32)CC1 [Compound 1, 7-(6-(2-hydroxypropan-2-yl)pyridin-3-yl)-1-((1r,4r)-4-methoxycyclohexyl)-3,4-dihydropyrazino-[2,3-b]pyrazin-2(1H)-one]
- IC50 (Calu-1): 4740 nM
- IC50 (Calu-3): 302 nM
- IC50 (Calu-6): 4520 nM
- IC50 (HOP62): 2010 nM
- IC50 (HOP92): > 30000 nM
- IC50 (NCI-H1299): 1230 nM
- IC50 (NCI-H1395): 600 nM
- IC50 (NCI-H1563): > 30000 nM
- IC50 (NCI-H1650): > 30000 nM
- IC50 (NCI-H1693): 1580 nM
- IC50 (NCI-H1734): 1550 nM
- IC50 (NCI-H1755): 3030 nM
- IC50 (NCI-H1792): 540 nM
- IC50 (NCI-H1838): > 30000 nM
- IC50 (NCI-H1944): 550 nM
- IC50 (NCI-H1975): 960 nM
- IC50 (NCI-H1993): 500 nM
- IC50 (NCI-H2030): 2230 nM
- IC50 (NCI-H2110): 456 nM
- IC50 (NCI-H2122): 900 nM
- IC50 (NCI-H2228): 264 nM
- IC50 (NCI-H226): 1750 nM
- IC50 (NCI-H2291): > 30000 nM
- IC50 (NCI-H2444): 778 nM
- IC50 (NCI-H28): > 30000 nM
- IC50 (NCI-H358): 1420 nM
- IC50 (NCI-H441): > 30000 nM
- IC50 (NCI-H460): 370 nM
- IC50 (NCI-H520): 499 nM and 500 nM
- IC50 (NCI-H549): 770 nM
- IC50 (NCI-H647): 1360 nM
- IC50 (NCI-H650): > 30000 nM
- IC50 (NCI-H727): 288 nM
- IC50 (SK-LU-1): 1440 nM
- IC50 (SW1573): 7210 nM
